Columns and labels:
[1] = Inhibition of synthetic melanin polymerization after 30 to 60 mins by UV-vis spectroscopic analysis; assay type: functional
[2] = Inhibition of synthetic melanin polymerization at 2 mM after 30 to 60 mins by UV-vis spectroscopic analysis relative to control; assay type: functional; conditions: values are per cent of control

SMILES	IC50 [1] [mM]	residual activity [2] [%]
O=[N+]([O-])c1ccc(B(O)O)cc1	0.55	21.5
Cc1ccc(B(O)O)cc1 [TOLYL BORONIC ACID]	4.45	62.8
OB(O)c1ccc(F)cc1	1.84	49.7
OB(O)c1ccccc1 [PHENYLBORONIC ACID]	1.84	51.7
N#Cc1ccc(B(O)O)cc1	0.59	19.4
OB(O)c1ccc(Br)cc1	1.03	37.7
CC(=O)c1ccc(B(O)O)cc1	0.69	30.5
OB(O)c1ccc(Cl)cc1	1.31	41.2
OB(O)c1ccc(C(F)(F)F)cc1	0.8	26.9
COc1ccc(B(O)O)cc1	6.2	66.1

From ChEMBL document CHEMBL1208734, “Aryl boronic acid inhibition of synthetic melanin polymerization” (Bioorg Med Chem Lett, 2010)
